One block for each compound: values may come before it.
Tests used:
[1] = target: T1, recombinant human ACC1 (acetyl-CoA carboxylase 1) (Homo sapiens, UniProt Q13085); assay: Human ACC1 enzyme assay (HTRF ADP detection); format: biochemical; details: 50 μM ATP, 20 μM acetyl-CoA, 15 min pre-incubation, 20 min at 22° C.; read-out: ACC 1 IC50;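 note: ADP by-product quantified by competitive HTRF immunoassay with europium cryptate anti-ADP antibody and d2-labelled ADP, read after 1 h binding at 22 °C, enzyme near 2.5 ng/µl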
T1 construct: NM_198834, amino acids 39—end; FLAG (C); made in house; host or cells: baculovirus-transfected insect cells (Hi5)
Description: The basic principle of the assay is the measurement of adenosine diphosphate (ADP), which is formed as a by-product, by means of an HTRF®-based competitive immunoassay (HTRF=Homogeneous Time Resolved Fluorescence).
The amount of complex of d2-labelled ADP and europium cryptate-labelled anti-ADP antibody was then determined by measuring the resonance energy transfer of europium cryptate to d2.

[2] = target: T2, ACC2 (acetyl-CoA carboxylase 2) (Homo sapiens, UniProt O00763); assay: Human ACC2 enzyme assay (HTRF ADP detection); format: biochemical; details: 20 μM acetyl-CoA, 15 min pre-incubation, 20 min at 22° C.; read-out: ACC 2 IC50
T2 construct: catalogue no; 50201, amino acids 39—end, expressed in baculovirus-transfected Sf9 insect cells; His (C); purchased BPS Bioscience (San Diego, Calif.) 50201; host or cells: baculovirus-transfected Sf9 insect cells
T2 sequence (O00763 39-2458 limits assumed): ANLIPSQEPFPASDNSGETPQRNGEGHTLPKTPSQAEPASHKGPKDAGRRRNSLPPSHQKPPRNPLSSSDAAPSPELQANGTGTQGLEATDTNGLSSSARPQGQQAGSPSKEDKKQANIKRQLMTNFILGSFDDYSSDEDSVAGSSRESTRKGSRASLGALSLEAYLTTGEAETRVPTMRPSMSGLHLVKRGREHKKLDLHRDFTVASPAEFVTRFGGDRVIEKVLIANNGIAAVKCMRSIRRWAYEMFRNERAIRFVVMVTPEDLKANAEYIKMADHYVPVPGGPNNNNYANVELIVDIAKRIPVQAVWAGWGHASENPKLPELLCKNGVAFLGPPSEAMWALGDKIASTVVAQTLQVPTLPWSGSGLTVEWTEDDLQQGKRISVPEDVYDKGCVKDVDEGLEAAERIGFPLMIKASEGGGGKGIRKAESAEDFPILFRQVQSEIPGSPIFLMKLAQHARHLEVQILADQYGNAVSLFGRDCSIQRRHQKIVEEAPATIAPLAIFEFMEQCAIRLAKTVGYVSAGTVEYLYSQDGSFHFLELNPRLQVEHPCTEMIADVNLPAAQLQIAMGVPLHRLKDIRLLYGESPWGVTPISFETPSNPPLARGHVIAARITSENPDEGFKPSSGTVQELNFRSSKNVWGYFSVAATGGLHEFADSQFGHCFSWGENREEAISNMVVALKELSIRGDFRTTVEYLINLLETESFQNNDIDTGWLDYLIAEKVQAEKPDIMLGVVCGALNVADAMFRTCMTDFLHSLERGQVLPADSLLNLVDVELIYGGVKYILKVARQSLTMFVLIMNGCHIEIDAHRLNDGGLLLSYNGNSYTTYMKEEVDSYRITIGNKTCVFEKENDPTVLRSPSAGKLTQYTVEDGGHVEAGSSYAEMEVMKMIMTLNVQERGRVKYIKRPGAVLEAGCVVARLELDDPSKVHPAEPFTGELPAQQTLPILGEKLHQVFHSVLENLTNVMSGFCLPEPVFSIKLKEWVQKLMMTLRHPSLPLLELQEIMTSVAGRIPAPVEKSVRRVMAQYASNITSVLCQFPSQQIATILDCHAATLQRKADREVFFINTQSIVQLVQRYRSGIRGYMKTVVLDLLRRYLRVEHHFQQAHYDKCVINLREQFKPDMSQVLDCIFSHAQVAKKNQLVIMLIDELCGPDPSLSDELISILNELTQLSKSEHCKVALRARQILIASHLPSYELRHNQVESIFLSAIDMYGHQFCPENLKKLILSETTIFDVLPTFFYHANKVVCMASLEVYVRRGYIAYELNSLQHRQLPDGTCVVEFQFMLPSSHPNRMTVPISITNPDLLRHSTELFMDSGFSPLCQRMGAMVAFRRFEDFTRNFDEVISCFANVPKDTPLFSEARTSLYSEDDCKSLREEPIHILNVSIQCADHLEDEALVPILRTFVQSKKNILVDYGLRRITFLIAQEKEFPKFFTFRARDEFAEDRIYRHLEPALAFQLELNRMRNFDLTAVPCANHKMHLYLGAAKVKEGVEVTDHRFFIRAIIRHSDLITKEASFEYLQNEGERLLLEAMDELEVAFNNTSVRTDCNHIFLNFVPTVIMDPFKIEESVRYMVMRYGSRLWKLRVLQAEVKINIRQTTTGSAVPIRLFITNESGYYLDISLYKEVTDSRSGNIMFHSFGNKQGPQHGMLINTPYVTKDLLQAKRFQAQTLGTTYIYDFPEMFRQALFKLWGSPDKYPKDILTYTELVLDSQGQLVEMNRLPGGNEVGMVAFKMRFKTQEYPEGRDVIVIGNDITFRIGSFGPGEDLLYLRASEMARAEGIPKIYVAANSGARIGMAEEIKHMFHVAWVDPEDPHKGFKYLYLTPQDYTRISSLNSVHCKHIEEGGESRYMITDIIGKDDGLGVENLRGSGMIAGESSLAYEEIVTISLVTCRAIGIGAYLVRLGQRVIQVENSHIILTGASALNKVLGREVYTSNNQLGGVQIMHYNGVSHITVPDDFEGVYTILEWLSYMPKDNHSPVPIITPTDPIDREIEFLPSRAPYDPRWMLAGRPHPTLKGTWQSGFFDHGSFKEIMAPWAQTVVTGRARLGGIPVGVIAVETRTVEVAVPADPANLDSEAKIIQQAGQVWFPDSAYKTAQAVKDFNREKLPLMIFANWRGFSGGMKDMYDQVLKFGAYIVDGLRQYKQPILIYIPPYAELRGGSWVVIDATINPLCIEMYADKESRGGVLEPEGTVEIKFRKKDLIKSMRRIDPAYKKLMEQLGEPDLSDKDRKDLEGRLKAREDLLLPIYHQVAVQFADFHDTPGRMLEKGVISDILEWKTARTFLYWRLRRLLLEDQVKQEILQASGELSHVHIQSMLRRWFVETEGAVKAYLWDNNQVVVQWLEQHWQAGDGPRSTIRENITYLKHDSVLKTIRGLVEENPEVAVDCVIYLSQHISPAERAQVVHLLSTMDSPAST

Compound: Cc1ccc(-c2ccc(F)cc2F)cc1C1C(=O)N2CCOCCN2C1=O [Example 8-5, 8-(2′,4′-difluoro-4-methylbiphenyl-3-yl)tetrahydro-7H-pyrazolo[1,2-d][1,4,5]oxadiazepine-7,9(8H)-dione]
IC50 [1]: 2.08 µM
IC50 [2]: > 20 µM

Compound: Cc1ccc(-c2ccc(Cl)cc2)cc1C1C(=O)N2CCOCCN2C1=O [Example 8-6, 8-(4′-chloro-4-methylbiphenyl-3-yl)tetrahydro-7H-pyrazolo[1,2-d][1,4,5]oxadiazepine-7,9(8H)-dione]
IC50 [1]: 1.38 µM
IC50 [2]: > 20 µM

Compound: Cc1ccc(-c2ccc(F)cc2)c(C)c1C1C(=O)N2CCOCCN2C1=O [Example 8-7, 8-(4′-fluoro-2,4-dimethylbiphenyl-3-yl)tetrahydro-7H-pyrazolo[1,2-d][1,4,5]oxadiazepine-7,9(8H)-dione]
IC50 [1]: 2.38 µM
IC50 [2]: > 20 µM

Compound: Cc1ccc(-c2ccc(Cl)cc2)c(C)c1C1C(=O)N2CCOCCN2C1=O [Example 8-8, 8-(4′-chloro-2,4-dimethylbiphenyl-3-yl)tetrahydro-7H-pyrazolo[1,2-d][1,4,5]oxadiazepine-7,9(8H)-dione]
IC50 [1]: 0.936 µM
IC50 [2]: 16.9 µM

Compound: O=C1C(c2cc(-c3ccc(Cl)cc3Cl)ccc2Cl)C(=O)N2CCOCCN12 [Example 8-9, 8-(2′,4,4′-trichlorobiphenyl-3-yl)tetrahydro-7H-pyrazolo[1,2-d][1,4,5]oxadiazepine-7,9(8H)-dione]
IC50 [1]: 0.457 µM
IC50 [2]: > 20 µM

Compound: O=C1C(c2cc(-c3ccc(Cl)c(Cl)c3)ccc2Cl)C(=O)N2CCOCCN12 [Example 8-10, 8-(3′,4,4′-trichlorobiphenyl-3-yl)tetrahydro-7H-pyrazolo[1,2-d][1,4,5]oxadiazepine-7,9(8H)-dione]
IC50 [1]: 1.13 µM
IC50 [2]: > 20 µM

Compound: O=C1C(c2cc(-c3ccc(F)cc3F)ccc2Cl)C(=O)N2CCOCCN12 [Example 8-11, 8-(4-chloro-2′,4′-difluorobiphenyl-3-yl)tetrahydro-7H-pyrazolo[1,2-d][1,4,5]oxadiazepine-7,9(8H)-dione]
IC50 [1]: 0.713 µM
IC50 [2]: > 20 µM

Compound: Cc1ccc(-c2ccc(Cl)cc2)cc1C1C(=O)N2CC(C)(F)CN2C1=O [Example 8-12, 2-(4′-chloro-4-methylbiphenyl-3-yl)-6-fluoro-6-methyldihydro-1H,5H-pyrazolo[1,2-a]pyrazole-1,3(2H)-dione]
IC50 [1]: 0.587 µM
IC50 [2]: > 20 µM

Compound: CC1(F)CN2C(=O)C(c3cc(-c4ccc(Cl)cc4)ccc3Cl)C(=O)N2C1 [Example 8-13, 2-(4,4′-dichlorobiphenyl-3-yl)-6-fluoro-6-methyldihydro-1H,5H-pyrazolo[1,2-a]pyrazole-1,3(2H)-dione]
IC50 [1]: 0.64 µM
IC50 [2]: > 20 µM

Compound: Cc1ccc(-c2ccc(Cl)cc2)cc1C1C(=O)N(C)N(C)C1=O [Example 8-14, 4-(4′-chloro-4-methylbiphenyl-3-yl)-1,2-dimethyl-1H-pyrazole-3,5(2H,4H)-dione]
IC50 [1]: 2.4 µM
IC50 [2]: > 20 µM

Compound: CN1C(=O)C(c2cc(-c3ccc(Cl)cc3)ccc2Cl)C(=O)N1C [Example 8-15, 4-(4,4′-dichlorobiphenyl-3-yl)-1,2-dimethyl-1H-pyrazole-3,5(2H,4H)-dione]
IC50 [1]: 1.97 µM
IC50 [2]: > 20 µM

Compound: Cc1ccc(-c2ccc(Cl)cc2)cc1C1C(=O)N2C3CCC(C3)N2C1=O (stereo not drawn) [Example 8-16, 2-(4′-chloro-4-methylbiphenyl-3-yl)tetrahydro-1H-5,8-methanopyrazolo[1,2-a]pyridazine-1,3(2H)-dione]
IC50 [1]: 0.662 µM
IC50 [2]: > 20 µM

Compound: O=C1C(c2cc(-c3ccc(Cl)cc3)ccc2Cl)C(=O)N2C3CCC(C3)N12 (stereo not drawn) [Example 8-17, 2-(4,4′-dichlorobiphenyl-3-yl)tetrahydro-1H-5,8-methanopyrazolo[1,2-a]pyridazine-1,3(2H)-dione]
IC50 [1]: 0.913 µM
IC50 [2]: > 20 µM

Compound: CC1(C)OC(=O)C(c2cc(-c3ccc(Cl)cc3)ccc2Cl)=C(O)C1(C)C [Example 10-1, 3-(4,4′-dichlorobiphenyl-3-yl)-4-hydroxy-5,5,6,6-tetramethyl-5,6-dihydro-2H-pyran-2-one]
IC50 [1]: 1.37 µM
IC50 [2]: > 20 µM

Compound: Cc1ccc(-c2ccc(Cl)cc2)cc1C1=C(O)C(C)(C)C(C)(C)OC1=O [Example 10-2, 3-(4′-chloro-4-methylbiphenyl-3-yl)-4-hydroxy-5,5,6,6-tetramethyl-5,6-dihydro-2H-pyran-2-one]
IC50 [1]: 0.586 µM
IC50 [2]: > 20 µM

Compound: Cc1ccc(-c2ccc(Cl)cc2)cc1C1C(=O)N(C)OC(C)(C)C1=O (stereo not drawn) [Example 11-1, 4-(4′-chloro-4-methylbiphenyl-3-yl)-2,6,6-trimethyl-1,2-oxazinane-3,5-dione]
IC50 [1]: 4 µM
IC50 [2]: > 20 µM

Compound: CCc1cc(-c2ccccc2)cc(Cl)c1C1C(=O)N2CCOCCN2C1=O [Example C-1, reference compound]
IC50 [1]: > 20 µM
IC50 [2]: > 20 µM

Compound: COC1CCC2(CC1)NC(=O)C(c1c(C)cc(-c3ccc(Cl)cc3)cc1C)=C2O (stereo not drawn) [Example C-2, reference compound]
IC50 [1]: > 20 µM
IC50 [2]: > 20 µM

Compound: COC1CCC2(CC1)NC(=O)C(c1c(C)cc(OC(F)(F)F)cc1Cl)=C2O (stereo not drawn) [Example C-3, reference compound]
IC50 [1]: > 20 µM
IC50 [2]: > 20 µM

Compound: (5r,8r)-3-(4′-chloro-2,4-dimethylbiphenyl-3-yl)-4-hydroxy-8-methoxy-8-methyl-1-azaspiro[4.5]dec-3-en-2-one [Example 1-87]
IC50 [1]: 0.54 µM
IC50 [2]: 7.3 µM

More lines, now with the values ahead:

IC50 [1]: 0.319 µM
IC50 [2]: > 20 µM
Compound: Cc1ccc(-c2ccc(Cl)cc2)cc1C1=C(O)CC(C)(C)NC1=O [Example 9-1, 3-(4′-chloro-4-methylbiphenyl-3-yl)-4-hydroxy-6,6-dimethyl-5,6-dihydropyridin-2(1H)-one]

IC50 [1]: 0.806 µM
IC50 [2]: 9.08 µM
Compound: Cc1ccc(-c2ccc(Cl)cc2)cc1C1=C(O)C(C)(C)CNC1=O [Example 9-2, 3-(4′-chloro-4-methylbiphenyl-3-yl)-4-hydroxy-5,5-dimethyl-5,6-dihydropyridin-2(1H)-one]

IC50 [1]: 1.06 µM
IC50 [2]: 4.28 µM
Compound: Cc1ccc(-c2ccc(Cl)cc2)cc1C1=C(O)C2(CCCCC2)CNC1=O [Example 9-3, 4-(4′-chloro-4-methylbiphenyl-3-yl)-5-hydroxy-2-azaspiro[5.5]undec-4-en-3-one]

IC50 [1]: 5.38 µM
IC50 [2]: > 20 µM
Compound: Cc1ccc(-c2ccc(Cl)cc2)cc1C1=C(O)CC(C)(C)N(C)C1=O [Example 9-4, 3-(4′-chloro-4-methylbiphenyl-3-yl)-4-hydroxy-1,6,6-trimethyl-5,6-dihydropyridin-2(1H)-one]

IC50 [1]: 0.625 µM
IC50 [2]: > 20 µM
Compound: Cc1ccc(-c2ccc(Cl)cc2)cc1-c1c(O)c2ccccc2[nH]c1=O [Example 9-5, 3-(4′-chloro-4-methylbiphenyl-3-yl)-4-hydroxyquinolin-2(1H)-one]

IC50 [1]: 1.09 µM
IC50 [2]: 18.9 µM
Compound: Cc1ccc(-c2ccc(C(F)(F)F)cc2)cc1-c1c(O)c2ccc(Cl)cc2[nH]c1=O [Example 9-6, 7-chloro-4-hydroxy-3-[4-methyl-4′-(trifluoromethyl)biphenyl-3-yl]quinolin-2(1H)-one]

IC50 [1]: 0.418 µM
IC50 [2]: > 20 µM
Compound: Cc1ccc(-c2ccc(Cl)cc2)cc1-c1c(O)c2ccc(F)cc2[nH]c1=O [Example 9-8, 3-(4′-chloro-4-methylbiphenyl-3-yl)-7-fluoro-4-hydroxyquinolin-2(1H)-one]

IC50 [1]: 0.863 µM
IC50 [2]: > 20 µM
Compound: Cc1ccc(-c2ccc(F)cc2)cc1-c1c(O)c2ccc(F)cc2[nH]c1=O [Example 9-9, 7-fluoro-3-(4′-fluoro-4-methylbiphenyl-3-yl)-4-hydroxyquinolin-2(1H)-one]

IC50 [1]: 1.69 µM
IC50 [2]: > 20 µM
Compound: Cc1ccc(-c2ccc(C(F)(F)F)cc2)cc1-c1c(O)c2ccc(F)cc2[nH]c1=O [Example 9-10, 7-fluoro-4-hydroxy-3-[4-methyl-4′-(trifluoromethyl)biphenyl-3-yl]quinolin-2(1H)-one]

IC50 [1]: 0.42 µM
IC50 [2]: 4.12 µM
Compound: Cc1ccc(-c2ccc(Cl)cc2)cc1-c1c(O)c2ccc(Cl)cc2[nH]c1=O [Example 9-11, 7-chloro-3-(4′-chloro-4-methylbiphenyl-3-yl)-4-hydroxyquinolin-2(1H)-one]

IC50 [1]: 0.329 µM
IC50 [2]: 5.56 µM
Compound: O=c1[nH]c2cc(Cl)ccc2c(O)c1-c1cc(-c2ccc(Cl)cc2)ccc1Cl [Example 9-13, 7-chloro-3-(4,4′-dichlorobiphenyl-3-yl)-4-hydroxyquinolin-2(1H)-one]

IC50 [1]: 1.64 µM
IC50 [2]: 5.62 µM
Compound: Cc1ccc(-c2ccc(Cl)cc2)cc1C1=C(O)C(C)(C)C(C)(C)NC1=O [Example 9-14, 3-(4′-chloro-4-methylbiphenyl-3-yl)-4-hydroxy-5,5,6,6-tetramethyl-5,6-dihydropyridin-2(1H)-one]

IC50 [1]: 5.4 µM
IC50 [2]: > 20 µM
Compound: CCc1cc(C)cc(Br)c1C1=C(O)C2(CCCCC2)OC1=O [Example C-4, reference compound]

Reference: patent US20120129833A1, “CYCLIC KETOENOLS FOR THERAPY” (BAYER PHARMA AKTIENGESELLSCHAFT, priority 2010, published 2012)
